Reference: article PMC6001824, “Expressional and functional interactions of two Apis cerana cerana olfactory receptors” (PeerJ, 2018)
Where two headings read alike, the source gives them in different places.

Tests used:
AcerOr1 = AcerOr1 (Apis cerana cerana, UniProt G8HAQ8); assay type: cell-based; details: for HillSlope: Sf9 cells expressing AcerOr1, 4-parameter logistic fit; for EC50: Sf9 cells expressing AcerOr1, Ca2+ imaging; for Emax: Sf9 cells expressing AcerOr1, concentration-response, 4-parameter logistic fit; for response of AcerOr1-expressing cells (increase in intracellular Ca2+): odorant at 10^−6 M
Experimental: (§1) Spodoptera frugiperda Sf9 cells were purchased from the Chinese Academy of Sciences Cell Bank (Beyotime, Shanghai, China) were maintained as an adherent culture in Sf-900 III serum-free medium (SFM; Gibco, Invitrogen, Carlsbad, CA, USA) supplemented with 10% fetal bovine serum (Sijiqing, Hangzhou, China) and 100 μg mL^−1 penicillin-streptomycin at a constant temperature of 28 °C in a humidified incubator (Thermo Scientific, Cornelius, OR, USA) in the absence of CO2 in T-25 tissue culture flasks (Corning Inc., Corning, NY, USA). Sf9 cells were grown to approximately 80–90% confluence as observed under a light microscope. Cells were dislodged from the flask by washing with the media contained in the flask. In total, 1 × 10^6 Sf9 cells were suspended in 2 mL of Sf-900 III SFM in each well of a Nunclone six-well tissue culture plate (Corning Inc., Corning, NY, USA). Confluent cells (80–90%) were transiently transfected with 2.0 μg pIB-AcerOr1/pIB-AcerOr2 using 8 μL of Cellfectin II reagent (Invitrogen, Carlsbad, CA, USA) in six-well plates according to the manufacturer’s instructions. The medium containing plasmid DNA and Cellfectin II was removed after incubation of the cells with a DNA/Cellfectin II mix for 3–5 h. The cells were washed twice with fresh Sf-900 III SFM and overlaid with 2 mL of fresh SFM. […] After incubation for 48 h, assays were performed.
(§2) To identify candidate ligands for selected ORs, we tested 32 compounds (most of which were volatile compounds from host plants, including aldehydes, alcohols, monoterpenes, benzoates, and sesquiterpenes) at a final concentration of 10^−6 M by Ca^2+ imaging in an in vitro cell expression system. […] After the cells were transfected for 48 h, the medium was removed and the cells were washed three times with Hank’s balanced salt solution (without Ca^2+). The cells were subsequently cultured at 37 °C in the dark for 30 min in the presence of 2 μmol L^−1 Fluo-4-AM (Beyotime, Shanghai, China) and were stimulated by the chemical odorants. Each test chemical ligand was applied to Fluo-4-loaded Sf9 cells expressing AcerOr1 at a final concentration of 10^−6 M, and the increase in fluorescence caused by the substrate was measured and expressed as a fraction of the fluorescence elicited by the calcium ionophore ionomycin. The Ca^2+-free solution used was Dulbecco’s phosphate buffered saline supplemented with 0.4 mM ethylene glycol tetra-acetic acid (EGTA).
(§3) EC50 values were determined using GraphPad Prism 6.0 (GraphPad; San Diego, CA, USA). The formula used for calculating the concentration-response using a 4-parameter logistic model was as follows: Y=Bottom+(Top−Bottom)/1+10^(LogEC50−X)^*HillSlope where Y and X are the response showing a sigmoid shape and the logarithm of the concentration.

AcerOr2 [1] = biological target: T1, AcerOr2 (Apis cerana cerana, UniProt G9J1I3); assay type: cell-based; details: for EC50: Sf9 cells expressing AcerOr2, Ca2+ imaging
Experimental: as §1, §2, §3

[2] = tested on: antennae of Apis cerana cerana; assay: Electroantennography (EAG) of isolated antennae; details: 500 μg μL^−1 of compound in liquid paraffin, relative to blank
Experimental: The level of OR expression in antenna olfactory neurons can be indirectly measured by recording the EAG responses of the isolated antennae to the corresponding odorant ligand. We compared data previously obtained by Ca^2+ imaging in vitro to determine whether these odorants can cause electrophysiological responses in the antennae with physiological activity. […] The compounds were dissolved and diluted in liquid paraffin to final concentrations of 0.1, 1, 10, 100, and 500 μg μL^−1. Pure liquid paraffin wax was used as a blank, and results were calculated relative to the blank. The antennae were carefully cut at the base and placed into EAG electrode probes (Syntech, Hilversum, The Netherlands) with a drop of Spectra 360 electrode gel (Parker Lab, Inc., Fairfield, NJ, USA). Filter paper strips (5 × 50 mm) were loaded with 20 μL of the different test solutions and inserted into glass Pasteur pipettes and served as sources of stimuli. Humidified airflow was delivered at a constant rate of 700 mL min^−1 by an air stimulus controller CS-55 (Syntech, Kirchzarten, Germany). Odor stimuli were administered three times at 2 mL s^−1 for 0.5 s at 30 s intervals. EAG recordings of antennal responses to each stimulus were documented as voltage waveforms using an IDAC-4 computer-operated amplifier controller (Syntech, Kirchzarten, Germany), and the data were analyzed with the EAGPro software (Syntech, Kirchzarten,Germany). A newly prepared antenna was used for each recording. A dose-response curve was plotted using the EAG recordings (in mV) for each concentration.

[3] = tested on: endogenous Orco in Sf9 cells; assay: Ca2+ imaging of control Sf9 cells transfected with pIB/V5 empty vector; assay type: cell-based, Spodoptera frugiperda; details: odorant at 10^−6 M
AcerOr2 [4] = biological target: T1, AcerOr2; assay type: cell-based; details: odorant at 10^−6 M

Chain of AcerOr1 (G8HAQ8 entry or part of it): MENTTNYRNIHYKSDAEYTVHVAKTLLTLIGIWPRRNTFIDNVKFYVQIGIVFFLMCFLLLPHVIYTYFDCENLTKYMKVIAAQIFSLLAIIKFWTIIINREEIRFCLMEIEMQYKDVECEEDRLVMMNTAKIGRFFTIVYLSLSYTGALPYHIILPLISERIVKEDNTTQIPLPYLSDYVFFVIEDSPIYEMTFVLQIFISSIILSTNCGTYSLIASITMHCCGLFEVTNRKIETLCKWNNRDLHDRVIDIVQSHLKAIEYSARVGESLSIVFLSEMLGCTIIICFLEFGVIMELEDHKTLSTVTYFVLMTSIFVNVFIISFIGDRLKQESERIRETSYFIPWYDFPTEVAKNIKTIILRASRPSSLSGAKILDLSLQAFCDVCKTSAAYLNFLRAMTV
T1 sequence (G9J1I3 entry or part of it): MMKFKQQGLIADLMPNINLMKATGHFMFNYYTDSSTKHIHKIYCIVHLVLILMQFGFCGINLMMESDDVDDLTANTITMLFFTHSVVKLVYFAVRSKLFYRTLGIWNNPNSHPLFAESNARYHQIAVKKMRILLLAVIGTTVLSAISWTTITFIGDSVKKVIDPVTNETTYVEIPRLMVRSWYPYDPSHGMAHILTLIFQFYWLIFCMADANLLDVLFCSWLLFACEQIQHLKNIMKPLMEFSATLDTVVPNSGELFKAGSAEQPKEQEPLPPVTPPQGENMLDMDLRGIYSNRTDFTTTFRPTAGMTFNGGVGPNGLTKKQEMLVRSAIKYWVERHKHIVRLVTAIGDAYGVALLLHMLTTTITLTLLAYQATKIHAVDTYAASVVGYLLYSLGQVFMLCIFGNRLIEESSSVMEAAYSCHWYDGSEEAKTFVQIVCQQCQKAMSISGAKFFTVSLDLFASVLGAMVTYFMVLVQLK

SMILES	HillSlope (AcerOr1)	EC50 (AcerOr1)	Emax (AcerOr1)	response of AcerOr1-expressing cells (increase in intracellular Ca2+) (AcerOr1)	EC50 (AcerOr2 [1]; read-out: EC50) [µM]	EC50 (AcerOr1; read-out: EC50) [µM]	EC50 (AcerOr2 [1]) [µM]	EAG response [2] [mV]	HillSlope (AcerOr2 [1]; Sf9 cells expressing AcerOr2, 4-parameter logistic fit)	Emax (AcerOr2 [1]; Sf9 cells expressing AcerOr2, concentration-response, 4-parameter logistic fit)	response of control cells (pIB/V5 empty vector, endogenous Orco only) [3]	response of cells expressing AcerOr2 alone (increase in intracellular Ca2+) (AcerOr2 [4])
CCCCCCCCCCC(=O)O [Undecanoic acid]	0.73 ± 0.05	10^−7 to 10^−8 M	116.69 ± 1.15	elicited responses	> 10	–	–	–	–	–	–	–
CCCCCCCCCCCC(=O)O [Lauric acid]	0.49 ± 0.06	10^−7 to 10^−8 M	138.79 ± 0.5	elicited responses	> 10	0.0481	–	–	–	–	–	–
CCCCCCCCCO [1-Nonanol]	0.80 ± 0.06	10^−7 to 10^−8 M	69.86 ± 0.44	elicited responses	> 10	–	–	–	–	–	–	–
CCCCCCCCO [1-Octyl alcohol]	0.63 ± 0.04	10^−7 to 10^−8 M	106.77 ± 2.01	elicited responses	> 10	–	–	–	–	–	–	–
CC/C=C\C/C=C\C/C=C\CCCCCCCC(=O)O [Linolenic acid]	0.87 ± 0.03	10^−7 to 10^−8 M	85.74 ± 0.83	elicited responses	–	–	> 10	10 ± 0.54	–	–	–	–
CCCCCCOC(C)=O [Hexyl acetate]	0.73 ± 0.05	10^−7 to 10^−8 M	115.94 ± 1.5	elicited responses	> 10	–	–	–	–	–	–	–
C=CC(C)=CCC=C(C)C [Ocimene]	0.50 ± 0.09	10^−7 to 10^−8 M	144.27 ± 0.59	elicited responses	> 10	0.0532	–	–	–	–	–	–
CC(C)=CCC/C(C)=C\CO [Nerol]	0.52 ± 0.06	10^−7 to 10^−8 M	184.92 ± 0.55	elicited responses	–	–	> 10	–	–	–	–	–
C=CCc1ccc(O)c(OC)c1 [Eugenol]	0.74 ± 0.06	10^−7 to 10^−8 M	88.53 ± 0.52	elicited responses	–	–	> 10	9.92 ± 0.58	–	–	–	–
CCc1ccc(NC(=O)CSc2nnc(-c3cccnc3)n2CC)cc1 [VUAA1, N-(4-ethylphenyl)-2-((4-ethyl-5-(3-pyridinyl)-4H-1,2,4-triazol-3-yl)thio) acetamide]	1.72 ± 1.48	–	4.64 ± 0.10	sensitive	0.0662	–	–	18.71 ± 1.45	0.56 ± 0.08	241.67 ± 0.74	unable to respond	greatest increase in intracellular Ca^2+
